# Entries after “also recorded” stand apart in the source; their conditions may differ.
# How the values were obtained:
# Assay type in all cases: cell-based
# [1] = system: NF-κB target genes (BIRC3, TNFAIP3, IL-8); assay: qRT-PCR of NF-κB target gene expression in cancer cells
# Procedure: RNA was isolated using an RNeasy kit (Qiagen, Valencia, Calif.). cDNA was generated using the Taqman reverse transcription kit (Applied Biosystems, Foster City, Calif.). qRT-PCR was performed using Sybr Select or Power Sybr green master mix (Applied Biosystems). Samples were plated in triplicate and run on a 7300 or 7500 real time PCR machine (Applied Biosystems), using the indicated primers (Table 2). Target gene expression was normalized to actin, HPRT, or GAPDH. Data are expressed as mean fold change+/−SEM and are representative of at least two independent biological replicates.
# NF-κB [2] = assay: Dual luciferase reporter assay, OVCAR8 cells transfected with NF-κB dependent reporter; conditions: 24 hours
# Description: (§1) Cells were transfected with firefly luciferase plasmids for STAT3 (m67-Luc) or NF-KB-Luc (Stratagene, Santa Clara, Calif.) and a Renilla luciferase plasmid (Promega, Madison, Wis.). The NF-κB-responsive cell line was generated with an NF-κB-responsive reporter plasmid (catalogue no. 219078; Strategene, La Jolla, Calif., incorporated herein by reference). Cells were also co-transfected with a plasmid expressing Renilla luciferase under a constitutive promoter for normalization (pRL-TK plasmid; Promega; Madison, Wis., incorporated herein by reference). Dual luciferase assays were performed as described (Walker et al., 2007 Oncogene, 26: 224-233, incorporated herein by reference).
# p65 [3] = assay: Single cell nuclear translocation analysis, HeLa p65-EGFP cells; conditions: 1 uM, imaged 18 hours
# Procedure: Hela cells stably expressing EGFP-tagged p65 were imaged for one hour prior to addition of either 1 uM Jak inhibitor 1 or 100 ng/mL TNF, and then for an additional 18 hours. Transmitted light and widefield epifluorescent images were captured at 10 min intervals using a BD Pathway 855 Bioimager with a 20× objective (0.75 NA; Olympus). Imaging was performed in an environmental chamber set to 37θC and 5% CO2. Five fields of view were analyzed per condition and the nuclear translocation of p65-EGFP was manually scored for each cell.
# NF-κB [4] = assay: NF-κB-dependent luciferase reporter assay in NF-κB-Luc cells (Prestwick library screen and confirmation); conditions: drug 1 hour, then TNF stimulation
# Description: as §1
# (§2) To identify NF-κB inhibitors, the Prestwick Chemical Library, which contains 1120 bioactive compounds, was screened for activity against cells expressing NF-κB-dependent luciferase (Nelson et al., 2008 Blood, 112(13):5095-102). To confirm the specificity of identified compounds, NF-κB-Luc and STAT3-Luc cells were treated with the indicated doses of drug for one hour followed by stimulation with TNF or IL-6 respectively for 6 hours. Luciferase activity was assessed using the Bright-Glo Luciferase Assay system (Promega).
# STAT3 = assay: STAT3-dependent luciferase reporter counterscreen in STAT3-Luc cells; conditions: drug one hour, then IL-6 for 6 hours
# Procedure: as §2
# multiple myeloma cells = assay: Quantitation of viable cell number (Cell-TiterGlo), multiple myeloma cells
# Procedure: (§3) Cells were treated with the indicated drugs in 96 well plates for 48 to 72 hours. Viable cell number was assessed using ATP-dependent bioluminescence (Cell-TiterGlo; Promega). Data are expressed as average+/−SD of at least two replicates, and are representative of at least two separate experiments.
# [5] = system: p65 and p50 NF-κB subunits; assay: Cellular fractionation and immunoblot of NF-κB subunits upon TNF stimulation, OVCAR8 cells; conditions: 24 hours, then TNF
# Procedure: (§4) Immunoblots were performed as described (Nelson et al., 2008 Blood, 112: 5095-5102). Nuclear and cytoplasmic fractions were isolated using the Nuclear Extract Kit (Active Motif North America, Carlsbad, Calif.). Antibodies were used recognizing phospho-tyrosine STAT3 (9131), PARP (9542), p65 (8242), RelB (4922) (Cell Signaling; Beverly, Mass.); actin (A-5316) and tubulin (T-5168) (Sigma); and STAT3 (sc-482), p50 (sc-7178), and calnexin (sc-11397) (Santa Cruz Biotechnology; Santa Cruz, Calif.).
# p65 [6] = assay: Chromatin immunoprecipitation at NF-κB binding sites of target genes, OVCAR8 cells; conditions: harmine pretreatment, TNF 30 minutes
# Procedure: SKBR3 cells stimulated with IL-6 for 30 minutes, OVCAR8 cells treated with harmine for 16 hours and then stimulated with TNF for 30 minutes, or U266 cells treated with Jak inhibitor 1 for 3 hours were analyzed by ChIP. Cross-linking was performed with 1% formaldehyde (0.37% for U266 cells) for 10 min at room temperature, followed by quenching of formaldehyde using 0.125 M glycine. ChIP was performed essentially as described (Nelson et al., 2004 J Biol Chem, 279(52):54724-30). Chromatin was sheared by sonication using a Qsonica Q700 sonicator with a microtip at approximately 75% amplitude. Anti-STAT3 antibody as described above, anti-p65 (Santa Cruz Biotechnology, sc-109), or anti-RNA polymerase II (Santa Cruz Biotechnology, sc-9001) were used. ChIP product was analyzed by qPCR using the following primers: RELB ([…] (SEQ ID NO: 34) and […] (SEQ ID NO: 35)), IL8 ([…] (SEQ ID NO: 36) and […] (SEQ ID NO: 37)), BIRC3 ([…] (SEQ ID NO: 38) and […] (SEQ ID NO: 39)), TNFAIP3 ([…] (SEQ ID NO: 40) and […] (SEQ ID NO: 41)). Data were normalized relative to input and a nonbinding region of the rhodopsin (RHO) gene (Walker et al., 2013 Mol Cell Biol, 33(15):2879-90).
# INA6 cells = assay: Apoptosis by PARP cleavage immunoblot, INA6 cells; conditions: 24 hours
# Procedure: as §4
# U266 and OVCAR8 cells = assay: Quantitation of viable cell number, U266 and OVCAR8 cells, harmine with additional STAT3 inhibitors; conditions: U266, 15 μM harmine, 3 μM TG101348; OVCAR8, 15 μM harmine, 5 μM pimozide; 72 hours
# Procedure: as §3
# [7] = OVCAR8 cells, 24 hours, qRT-PCR
structure (smiles),measurement,setting,value
CCN1/C(=C/C(C)=O)Sc2ccc(O)cc21 [INDY],NF-κB target gene expression,[1]; [7],did not inhibit
CC(C)(C)c1nc2c3cc[nH]c(=O)c3c3cc(F)ccc3c2[nH]1 [Jak inhibitor 1],NF-κB target gene expression (IL-8),"[1]; A498 renal carcinoma cells, 24 hours",enhanced
same,NF-κB target gene expression,"[1]; INA-6 MM cells, 22-24 hours",enhanced
same,NF-κB target gene expression,"[1]; MDA-MB-468 breast cancer cells, 1 μM, 28 hours",enhanced
same,NF-κB target gene expression,[1]; [7],enhanced
same,NF-κB reporter luciferase activity,NF-κB [2],enhanced
same,p65 nuclear translocation,p65 [3],not significantly altered
COc1ccc2c(c1)[nH]c1c(C)nccc12 [harmine],NF-κB-dependent luciferase activity (transcriptional activity of NF-κB),NF-κB [4],identified as an NF-κB inhibitor
same,NF-κB-dependent luciferase activity (transcriptional activity of NF-κB),NF-κB [4]; listed as Harmine,inhibitor of NF-κB-dependent luciferase; also recorded: inhibited
same,STAT3-dependent luciferase activity,STAT3,little effect; also recorded: not inhibiting
same,cell killing in combination with Jak inhibitor 1 (relative viable cell number),"multiple myeloma cells; INA6, 5 μM harmine, 0.25 μM Jak inhibitor 1, 72 hours",synergistic cell killing
same,viability of multiple myeloma cells (relative viable cell number),"multiple myeloma cells; cells containing activated NF-κB (INA6, U266, MA/11.S), 72 hours",inhibited the viability
same,induction of NF-κB target genes induced by Jak inhibitor 1,"[1]; OVCAR8 cells, 24 hours, harmine together with Jak inhibitor 1",completely suppressed
same,NF-κB target gene expression,[1]; [7],reduced; also recorded: inhibited
same,nuclear accumulation of p65 and p50,[5],no effect
same,RNA polymerase II binding at NF-κB target genes (ChIP),p65 [6],reduced
same,p65 binding at NF-κB binding sites of target genes (ChIP),p65 [6],reduced
same,"apoptosis measured by PARP cleavage, combination with Jak inhibitor 1",INA6 cells,enhanced apoptosis
same,cell killing in combination with additional STAT3 inhibitors (relative viable cell number),U266 and OVCAR8 cells,enhanced killing
O=C(N/N=C/c1ccc([N+](=O)[O-])o1)c1ccc(O)cc1 [nifuroxazide],NF-κB target gene expression,"[1]; INA-6 MM cells, 22-24 hours",upregulation
same,NF-κB target gene expression,[1]; [7],upregulation

# Source: patent US20210393597A1, “TARGETING THE TRANSCRIPTION FACTOR NF-KB WITH HARMINE” (DANA-FARBER CANCER INSTITUTE, INC., priority 2018, published 2021)
